Measurements reported in ChEMBL document CHEMBL1152969, “Verbesinosides A-F, 15,27-cyclooleanane saponins from the American native plant Verbesina virginica” (J Nat Prod, 2009).
Activity calls are given as the source filed them.

Legend:
Format in all cases: functional, organism-based
[1] = system: Candida albicans; assay: Antimicrobial activity against Candida albicans at 20 ug/mL
[2] = system: Aspergillus fumigatus; assay: Antimicrobial activity against Aspergillus fumigatus at 20 ug/mL
[3] = system: Cryptococcus neoformans; assay: Antimicrobial activity against Cryptococcus neoformans at 20 ug/mL
[4] = system: Staphylococcus aureus; assay: Antimicrobial activity against Staphylococcus aureus at 20 ug/mL
[5] = system: Staphylococcus aureus; assay: Antimicrobial activity against methicillin-resistant Staphylococcus aureus at 20 ug/mL
[6] = system: Pseudomonas aeruginosa; assay: Antimicrobial activity against Pseudomonas aeruginosa at 20 ug/mL
[7] = system: Mycobacterium intracellulare; assay: Antimicrobial activity against Mycobacterium intracellular at 20 ug/mL

Measured: Activity

COc1cc(C(=O)O[C@H]2C[C@]3(C(=O)O)C[C@@H]4C[C@]45C(=CCC4[C@@]6(C)CC[C@H](O[C@@H]7O[C@H](CO)[C@@H](O)[C@H](O)[C@H]7O[C@@H]7OC[C@@H](O[C@@H]8OC[C@@H](O)[C@H](O)[C@H]8O)[C@H](O)[C@H]7O)C(C)(C)[C@@H]6CC[C@]45C)[C@@H]3CC2(C)C)cc(OC)c1OC (some centres not stated)
inactive: all assays above
